Reference: the supplement of paper PMC4862054
Values joined by “and” are separate entries in the source; they are usually repeats but may differ in a detail not shown here. Identical values can stand only once.

How the values were obtained:
Details in all cases: incubation time: 72 h
[1] = system: MFM-223; test: normalised viability (% of control), CellTiter-Blue; higher = more viable cells (about 100 = DMSO control)
Method in brief: (§1)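 384-well plates were pre-loaded with compound in 5 µl medium before 20 µl of breast cancer cell suspension was seeded. Following 72 h incubation, 2.5 µl CellTiter-Blue reagent was added for 2 h at 37 °C. Fluorescence was read at 560/590 nm and plates were normalised to vehicle (100) and a positive kill control (0), checked by Z'-factor. Normalised viability is reported at a single listed concentration of the series.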

[2] = system: SK-BR-3; test: as above
Method in brief: as §1

[3] = system: CAL-51; test: as above
Method in brief: as §1

[4] = system: HDQ-P1; test: as above
Method in brief: as §1

[5] = system: MDA-MB-436; test: as above
Method in brief: as §1

[6] = system: DU-4475; test: as above
Method in brief: as §1

[7] = system: BT-549; test: as above
Method in brief: as §1

[8] = system: MDA-MB-231; test: as above
Method in brief: as §1

[9] = system: CAL-148; test: as above
Method in brief: as §1

[10] = system: HCC1599; test: as above
Method in brief: as §1

[11] = system: BT-474; test: as above
Method in brief: as §1

[12] = system: HCC1937; test: as above
Method in brief: as §1

[13] = system: MDA-MB-468; test: as above
Method in brief: as §1

[14] = system: Hs578T; test: as above
Method in brief: as §1

[15] = system: MDA-MB-453; test: as above
Method in brief: as §1

[16] = system: HCC1143; test: as above
Method in brief: as §1

[17] = system: CAL-85-1; test: as above
Method in brief: as §1

[18] = system: CAL-120; test: as above
Method in brief: as §1

[19] = system: MDA-MB-436; test: drug sensitivity score (DSS), CellTiter-Glo (DSS (AUC-based score)); higher = stronger drug effect (viability inhibition or cytotoxicity); extreme values may be limits of the assay
Method in brief: (§2)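 Breast cancer cells were seeded into 384-well plates containing compound at 5 concentrations in 10-fold steps over a compound-specific 10,000-fold range and incubated 72 h. After CellTox Green and CellTiter-Glo readings, each plate was normalised to 0.1 % DMSO and a positive kill control. The drug sensitivity score rests on the area under the fitted dose-response curve.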

[20] = system: CAL-148; test: as above
Method in brief: as §2

O=C(c1cc(Cc2n[nH]c(=O)c3ccccc23)ccc1F)N1CCN(C(=O)C2CC2)CC1 [Olaparib]
normalised viability [%]
Details	3 nM	10 nM	30 nM	100 nM	1000 nM	10000 nM
[1]	–	98.3	–	–	98.8	114
[2]	–	103	–	–	93.5	82.1
[3]	107	–	98.5	97.7	–	–
[4]	95.6	–	102	103	–	–
[5]	–	113	–	–	105	95.6
[6]	95.6	–	89.2	91.6	–	–
[7]	–	95	–	–	90.8	84.9
[8]	–	89.7	–	–	88	72.2
[9]	76.5	–	87.8	83.3	–	–
[10]	–	93.8	–	–	114	94.2
[11]	–	109	–	–	104	98.2
[12]	–	78.5	–	–	58.4	51.2
[13]	–	102	–	–	89.8	65.8
[14]	–	110	–	–	109	75.7
[15]	109	–	92.3	100	–	–
[16]	–	81.6	–	–	92.9	80.2
[17]	87.7	–	74	90.5	–	–
[18]	–	78.7	–	–	80.5	68.6

Details	drug sensitivity score
[19]	4.69
[20]	2.94

CO[C@H](C(=O)[C@@H](O)[C@@H](C)O)[C@@H]1Cc2cc3cc(O[C@H]4C[C@@H](O[C@@H]5C[C@@H](O)[C@H](O)[C@@H](C)O5)[C@H](O)[C@@H](C)O4)c(C)c(O)c3c(O)c2C(=O)[C@H]1O[C@H]1C[C@@H](O[C@@H]2C[C@@H](O)[C@@H](O[C@@H]3C[C@](C)(O)[C@H](O)[C@@H](C)O3)[C@@H](C)O2)[C@H](O)[C@@H](C)O1 [Plicamycin]
Details	normalised viability
[1], 10 nM	103% and 87.9%
[1], 1000 nM	20.3% and 16.5%
[1], 10000 nM	9.96% and 7.4%
[2], 10 nM	111% and 88.8%
[2], 1000 nM	6.61% and 5.62%
[2], 10000 nM	4.44% and 5.25%
[3], 3 nM	99.7% and 119%
[3], 30 nM	96.1% and 112%
[3], 100 nM	62.3% and 61.2%
[4], 30 nM	104% and 80.5%
[4], 100 nM	68.5% and 44.6%
[5], 10 nM	95.2% and 75.5%
[5], 1000 nM	25.8% and 19.9%
[5], 10000 nM	21.7% and 13.9%
[6], 3 nM	85.1% and 89.9%
[6], 30 nM	88.7% and 83.8%
[6], 100 nM	1.46% and 0.7%
[7], 10 nM	94.7% and 83.2%
[7], 1000 nM	6.74% and 5.38%
[7], 10000 nM	6.68% and 5.22%
[8], 10 nM	82.1% and 88.4%
[8], 1000 nM	9.81% and 8.56%
[8], 10000 nM	8.03% and 7.03%
[9], 3 nM	87.7%
[9], 30 nM	95.3% and 99.5%
[9], 100 nM	26% and 38.8%
[10], 10 nM	89.6% and 108%
[10], 1000 nM	22.3% and 22.2%
[10], 10000 nM	15.2% and 19.4%
[11], 10 nM	122% and 103%
[11], 1000 nM	36% and 23.9%
[11], 10000 nM	22.1% and 26.4%
[12], 10 nM	85.8% and 78.5%
[12], 1000 nM	22.1% and 19.5%
[12], 10000 nM	29.1% and 20.6%
[13], 10 nM	91.4% and 92.1%
[13], 1000 nM	3.16% and 3.32%
[13], 10000 nM	2.7% and 3.47%
[14], 10 nM	100% and 82.1%
[14], 1000 nM	3.62% and 2.96%
[14], 10000 nM	2.27% and 1.73%
[15], 3 nM	109% and 113%
[15], 30 nM	99.8% and 92.6%
[15], 100 nM	48.3% and 34.6%
[16], 10 nM	84.9% and 62.2%
[16], 1000 nM	22% and 14.7%
[16], 10000 nM	16.7% and 14.6%
[17], 3 nM	87.3% and 88.3%
[17], 30 nM	89.2% and 83.9%
[17], 100 nM	51.5% and 39.5%
[18], 10 nM	89.5% and 75.6%
[18], 1000 nM	13.4% and 10.2%
[18], 10000 nM	11.9% and 9.12%

Details	drug sensitivity score
[19]	2.49
[20]	4.43
